The test concerns BDF1 mice, P388 leukemia ip, median survival T/C. The test can be described thus: NCI In Vivo Anticancer Drug Screen. Data for tumor model P388 Leukemia (intraperitoneal) in B6D2F1 (BDF1) mice. As to conditions: endpoint: median survival time, higher = longer survival. Put shortly:
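Compound-treated tumour-bearing mice were compared with vehicle-treated controls. Survival was recorded, and the value is the treated-group measurement divided by the control-group measurement (T/C).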

[1] abbreviates: dose: 50.0 mg/kg/injection, schedule: Q01DX005 (ip), vehicle: saline with Tween-80.
Setting [2] is: dose: 100.0 mg/kg/injection, schedule: Q01DX005 (ip), vehicle: saline with Tween-80.
Where [3] appears, read: dose: 200.0 mg/kg/injection, schedule: Q01DX005 (ip), vehicle: saline with Tween-80.
[4] abbreviates: dose: 100.0 mg/kg/injection, schedule: Q01DX009 (ip), vehicle: Klucel (hydroxypropylcellulose) (HPC).
Setting [5] is: dose: 100.0 mg/kg/injection, schedule: Q04DX003 (ip), vehicle: Klucel (hydroxypropylcellulose) (HPC).
[6] abbreviates: dose: 200.0 mg/kg/injection, schedule: Q01DX009 (ip), vehicle: Klucel (hydroxypropylcellulose) (HPC).
Where [7] appears, read: dose: 100.0 mg/kg/injection, schedule: Q01DX009 (ip), vehicle: saline.
Setting [8] is: dose: 100.0 mg/kg/injection, schedule: Q04DX003 (ip), vehicle: saline.
Where [9] appears, read: dose: 200.0 mg/kg/injection, schedule: Q01DX009 (ip), vehicle: saline.
The mark [10] stands for this setting: dose: 200.0 mg/kg/injection, schedule: Q04DX003 (ip), vehicle: saline.

“And” between values parts separate entries of the source, which are not always exact repeats. Identical values can stand only once. Toxic doses and inconclusive results are not listed.

Regarding `CN(C)c1ccc(/C=C/c2ccnc3c(N)cccc23)cc1`, the T/C by setting is: (dose: 100.0 mg/kg/injection, schedule: Q04DX002 (ip), vehicle: saline with Tween-80) 110 % of control; (dose: 200.0 mg/kg/injection, schedule: Q04DX002 (ip), vehicle: saline with Tween-80) 113 % of control; (dose: 400.0 mg/kg/injection, schedule: Q04DX002 (ip), vehicle: saline with Tween-80) 116 % of control.

For the compound `C[C@@H](O)[C@@H](O)c1cnc2nc(N)[nH]c(=O)c2n1`, the T/C by setting is: under setting [1], 100 % of control; under setting [2], 91 % of control; under setting [3], 115 % of control.

For `COc1cccc(CN2CCCNCC2)c1`, the T/C is, setting by setting: (dose: 6.25 mg/kg/injection, schedule: Q04DX003 (ip), vehicle: water) 92 % of control; (dose: 12.5 mg/kg/injection, schedule: Q04DX003 (ip), vehicle: water) 93 % of control; (dose: 25.0 mg/kg/injection, schedule: Q04DX003 (ip), vehicle: water) 93 % of control; (dose: 50.0 mg/kg/injection, schedule: Q04DX003 (ip), vehicle: water) 112 % of control; (dose: 100.0 mg/kg/injection, schedule: Q04DX003 (ip), vehicle: water) 89 % of control.

As to `COc1cc(NS(C)(=O)=O)ccc1N`, the T/C reads like this: under setting [4], 100 % of control; under setting [5], 100 % of control; under setting [6], 90 % of control.

As to `N#Cc1c(O)oc2cccnc12`, the T/C by setting is: under setting [1], 92 % of control; under setting [2], 97 % of control; under setting [3], 103 % of control.

`O=C(c1ccc(C(=O)N2CC2)cc1)N1CC1`: the T/C is 95 % of control (dose: 5.0 mg/kg/injection, schedule: Q01DX009 (ip), vehicle: saline with Tween-80) and 109 % of control (dose: 20.0 mg/kg/injection, schedule: Q01DX009 (ip), vehicle: saline with Tween-80).

Regarding `NC(Cn1cc(N(CCCl)CCCl)c(=O)[nH]c1=O)C(=O)O` (stereo unspecified), the T/C is, setting by setting: (dose: 6.0 mg/kg/injection, schedule: Q01DX009 (ip), vehicle: saline) 175 % of control; (dose: 12.0 mg/kg/injection, schedule: Q01DX009 (ip), vehicle: saline) 189 % of control; (dose: 24.0 mg/kg/injection, schedule: Q01DX009 (ip), vehicle: saline) 215 % of control.

`COc1cc2c(cc1OC)[C@]13C[C@@H](OC)CC=C1CCN3CCC2`: the T/C (dose: 5.0 mg/kg/injection, schedule: Q01DX009 (ip), vehicle: alcohol) is 100 % of control; the T/C (dose: 10.0 mg/kg/injection, schedule: Q01DX009 (ip), vehicle: alcohol) was 95 % of control; the T/C (dose: 20.0 mg/kg/injection, schedule: Q01DX009 (ip), vehicle: alcohol) was 90 % of control; the T/C (dose: 40.0 mg/kg/injection, schedule: Q01DX009 (ip), vehicle: alcohol) is 90 % of control.

Consider `C[CH2][Pb]([CH2]C)([CH2]C)[O][As](=O)(O)c1ccc(N)cc1`, for which the T/C runs as follows: (dose: 1.5 mg/kg/injection, schedule: Q01DX009 (ip), vehicle: saline) 107 % of control; (dose: 2.0 mg/kg/injection, schedule: Q01DX009 (ip), vehicle: saline) 111 % of control; (dose: 3.0 mg/kg/injection, schedule: Q01DX009 (ip), vehicle: saline) 103 % of control; (dose: 4.5 mg/kg/injection, schedule: Q01DX009 (ip), vehicle: saline) 95 % of control.

As to `O=[n+]1c2ccccc2n([O-])c2ccccc21.[Cl][Ni][Cl]`, the T/C was 105 % of control (dose: 6.25 mg/kg/injection, schedule: Q04DX003 (ip), vehicle: saline with Tween-80) and 112 % of control (dose: 12.5 mg/kg/injection, schedule: Q04DX003 (ip), vehicle: saline with Tween-80).

For `Oc1ccccc1C=Nc1ccccc1.Oc1ccccc1C=Nc1ccccc1.[Ni+2]`, the T/C by setting is: (dose: 25.0 mg/kg/injection, schedule: Q04DX003 (ip), vehicle: saline sonified) 100 % of control; (dose: 50.0 mg/kg/injection, schedule: Q04DX003 (ip), vehicle: saline sonified) 113 % of control.

Consider `CC(=O)NCCCCCC(=O)O`, for which the T/C runs as follows: under setting [4], 90 % of control; under setting [5], 95 % of control; under setting [6], 90 % of control; (dose: 200.0 mg/kg/injection, schedule: Q04DX003 (ip), vehicle: Klucel (hydroxypropylcellulose) (HPC)) 95 % of control; (dose: 400.0 mg/kg/injection, schedule: Q01DX009 (ip), vehicle: Klucel (hydroxypropylcellulose) (HPC)) 109 % of control; (dose: 400.0 mg/kg/injection, schedule: Q04DX003 (ip), vehicle: Klucel (hydroxypropylcellulose) (HPC)) 109 % of control.

Turning to `[NH-]C(CCC(N)=O)C(=O)O.[NH-]C(CCCN=C(N)N)C(=O)O.[Zn+2]` (stereo unspecified), the T/C is 104 % of control (dose: 50.0 mg/kg/injection, schedule: Q01DX005 (ip), vehicle: saline) and 120 % of control (dose: 100.0 mg/kg/injection, schedule: Q01DX005 (ip), vehicle: saline).

As for `COc1cc(Nc2c3ccccc3nc3ccccc23)cc(OC)c1OC`, the T/C (dose: 12.5 mg/kg/injection, schedule: Q01DX009 (ip), vehicle: saline with Tween-80) was 97 % of control and 99 % of control; the T/C (dose: 25.0 mg/kg/injection, schedule: Q01DX009 (ip), vehicle: saline with Tween-80) was 112 % of control; the T/C (dose: 50.0 mg/kg/injection, schedule: Q01DX009 (ip), vehicle: saline with Tween-80) was 109 % of control and 115 % of control.

Take `NC(Cc1cc(Br)c(O)c(Br)c1)C(=O)O` (stereo unspecified): the T/C by setting is: (dose: 25.0 mg/kg/injection, schedule: Q01DX009 (ip), vehicle: saline) 108 % of control; (dose: 50.0 mg/kg/injection, schedule: Q01DX009 (ip), vehicle: saline) 92 % of control; (dose: 50.0 mg/kg/injection, schedule: Q04DX003 (ip), vehicle: saline) 120 % of control; under setting [7], 96 % of control; under setting [8], 105 % of control; under setting [9], 120 % of control. The T/C is 115 % of control under setting [10] and 113 % of control (dose: 400.0 mg/kg/injection, schedule: Q01DX009 (ip), vehicle: saline).

As to `C[N+](C)(C)c1ccc(/C=N\NC(=O)c2ccccc2)cc1`, the T/C (dose: 12.5 mg/kg/injection, schedule: Q01DX009 (ip), vehicle: Klucel (hydroxypropylcellulose) (HPC)) was 105 % of control; the T/C (dose: 12.5 mg/kg/injection, schedule: Q04DX003 (ip), vehicle: Klucel (hydroxypropylcellulose) (HPC)) is 100 % of control; the T/C (dose: 25.0 mg/kg/injection, schedule: Q01DX009 (ip), vehicle: Klucel (hydroxypropylcellulose) (HPC)) is 105 % of control; the T/C (dose: 25.0 mg/kg/injection, schedule: Q04DX003 (ip), vehicle: Klucel (hydroxypropylcellulose) (HPC)) was 100 % of control; the T/C (dose: 50.0 mg/kg/injection, schedule: Q01DX009 (ip), vehicle: Klucel (hydroxypropylcellulose) (HPC)) was 105 % of control; the T/C (dose: 50.0 mg/kg/injection, schedule: Q04DX003 (ip), vehicle: Klucel (hydroxypropylcellulose) (HPC)) was 95 % of control.

With `CC1(C)OC(=O)CC(=O)O1`, the T/C reads like this: under setting [7], 105 % of control; under setting [8], 91 % of control; under setting [9], 100 % of control; under setting [10], 91 % of control; (dose: 400.0 mg/kg/injection, schedule: Q04DX003 (ip), vehicle: saline) 100 % of control.

On to `C1OCN2CSCC12` (stereo unspecified), for which the T/C is 110 % of control (dose: 100.0 mg/kg/injection, schedule: Q04DX002 (ip), vehicle: suspension in saline) and 117 % of control (dose: 600.0 mg/kg/injection, schedule: Q04DX002 (ip), vehicle: suspension in saline).

These data come from PubChem BioAssay AID328 (DTP/NCI, 2004).
